What was measured:
Ureaplasma = conditions: Stamm and colleagues; cited from earlier work
[1] = cited from earlier work
Chlamydia = conditions: single dose (Martin); cited from earlier work
[2] = system: SPR (Spiky Rotating Cells); experiment: Treatment of patients with SPR infection; assay type: in vivo, human; conditions: oral treatment of patients
Description: My discovery of the novel SPR organism also provides for the treatment of SPR infections in male and female patients. The method involves first diagnosing the SPR infection, and then, upon obtaining a positive diagnosis, administering to the patient an SPR-inhibiting amount of an anti-SPR agent selected from the group consisting of itraconazole, ofloxacin, metronidazole.
One such drug is itraconazole, sold under the trade name SPORANOX®, available from Jansen Pharmaceuticals. The patient ingests one 200 mg tablet per day for three-four weeks.
The patient takes 500 mg twice per day for six weeks.
Yet another drug that is effective in treating SPR infection is ofloxacin, sold under the trade name FLOXIN®. The patient takes 400 mg twice per day for two weeks.

## CC[C@H]1OC(=O)[C@H](C)[C@@H](O[C@H]2C[C@@](C)(OC)[C@@H](O)[C@H](C)O2)[C@H](C)[C@@H](O[C@@H]2O[C@H](C)C[C@H](N(C)C)[C@H]2O)[C@](C)(O)C[C@@H](C)CN(C)[C@H](C)[C@@H](O)[C@]1(C)O [Azithromycin]
Ureaplasma
  Ureaplasma cases that responded: 47%
[1]; Stamm and colleagues
  cases of NGU cured: 78%
  overall effectiveness in NGU compared with Doxycycline: overall as effective as Doxycyline
Chlamydia
  efficacy in uncomplicated chlamydial urethritis compared with Doxycycline: comparable to Doxycycline

## Cc1ncc([N+](=O)[O-])n1CCO [metronidazole]
[1]; refractory cases, smaller series (Toth)
  clinical efficacy in refractory cases: good clinical efficacy
[2]
  effectiveness in treating infection with SPR: can be used to treat SPR infection
